Data published in ChEMBL document CHEMBL1201862, “PubChem BioAssay data set” (2004).
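Cells were grown in 96-well plates and exposed to each compound for 48 hours at five concentrations; endpoints were interpolated linearly between bracketing concentrations, or set to the highest concentration if not reached. Abbreviation: GI50, concentration required for 50% inhibition of growth.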 The source made the active and inactive calls. Cut-off read from the data, not from the text of the source: active = GI50 up to about 1.1 µM and inactive = higher.

Tests used:
Test in all cases: NCI tumour cell line growth inhibition, 48 h
DLD-1 = tested on: DLD-1
HCC 2998 = tested on: HCC 2998
KM-20L2 = tested on: KM-20L2
NCI-H522 = tested on: NCI-H522
RXF 631 = tested on: RXF 631
SK-MEL-28 = tested on: SK-MEL-28
MCF7 = tested on: MCF7

Measured: GI50

O=c1c(C(c2ccc(Cl)cc2)c2c(O)c3ccccc3n(-c3ccccc3)c2=O)c(O)c2ccccc2n1-c1ccccc1
inactive: DLD-1 7.08 µM | HCC 2998 23.3 µM | KM-20L2 37.6 µM | NCI-H522 22.6 µM | RXF 631 19.1 µM | SK-MEL-28 > 100 µM

N#Cc1c(NC(=S)NC(=O)c2ccccc2)nc2c(c1-c1ccccc1)CCC2
inactive: MCF7 > 10 µM
